Reference: publication PMC12903857
Values joined by “and” are separate entries in the source; they are usually repeats but may differ in a detail not shown here. Equal values may be shown once.

What was measured:
14-3-3σ/B-RAF = 14-3-3σ/B-RAF (Homo sapiens, UniProt P31947)
[1] = tested on: 80 peptides representing a diverse set of 14-3-3 clients; assay: FA selectivity panel, single point; settings: 10.5 μM compound, 100 nM client peptides, overnight; hit = change in anisotropy of more than 15 units
Protocol: (§1) concentraton (50 μM, maximum eﬀect) was used.
giving the anisotropy change (ΔAU ) .
sele tme: 0 ms, gain: optmal).

14-3-3σ/C-RAF259 [2] = target: T1, 14-3-3σ/C-RAF259 (Homo sapiens, UniProt P31947); assay: Fluorescence anisotropy (FA) compound titration; format: binding; settings: 10 nM C-RAF259-FAM 10-mer, 5 μΜ 14-3-3σ, overnight; read-out: Compound titrations EC50 value C-RAF259
T1 sequence (P31947 whole entry, other chains not shown): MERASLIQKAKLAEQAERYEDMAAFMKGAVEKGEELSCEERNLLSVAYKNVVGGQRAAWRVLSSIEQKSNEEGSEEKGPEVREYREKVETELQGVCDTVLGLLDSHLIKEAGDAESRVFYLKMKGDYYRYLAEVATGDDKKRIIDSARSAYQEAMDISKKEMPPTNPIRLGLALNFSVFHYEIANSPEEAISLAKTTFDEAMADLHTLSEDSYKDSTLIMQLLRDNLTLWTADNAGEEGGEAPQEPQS

A-RAF/C-RAF = assay: NanoBRET for heterodimer formation A-RAF/C-RAF
B-RAF/C-RAF = assay: NanoBRET for heterodimer formation B-RAF/C-RAF
pERK [3] = assay: Lumit immunoassay for pERK levels in HEK293T cells; format: cell-based; settings: Homo sapiens, HEK-293T; HEK293T, 14-3-3σ and C-RAF transfected, 24 h, EGF stimulation
N-RAS Q61L/C-RAF = settings: HEK293T; 100% = DMSO mBU, 0% = N-RAS/C-RAF R89L
14-3-3σ/TAZ = 14-3-3σ/TAZ (Homo sapiens, UniProt P31947); assay: FA compound titration follow-up from selectivity panel
Chain of 14-3-3σ/TAZ (P31947 whole entry, other chains not shown): as above
Protocol: as §1
giving the anisotropy change (ΔAU ) .
sele tme: 0 ms, gain: optmal).

14-3-3σ/KC1A = 14-3-3σ/KC1A (Homo sapiens, UniProt P31947); assay: as above
Chain of 14-3-3σ/KC1A (P31947 whole entry, other chains not shown): as above
Protocol: as §1
giving the anisotropy change (ΔAU ) .
sele tme: 0 ms, gain: optmal).

pERK [4] = assay: Lumit immunoassay for pERK with 14-3-3 C38N mutant; format: cell-based; settings: HEK293T
C-RAF/C-RAF = settings: with N-RAS Q61L; 100% = DMSO mBU
Protocol: We aimed to study potential effects of the molecular glues on RAF-dimer formation using a NanoBRET assay.
All compound treatments were 24 hours.

14-3-3σ/C-RAF [5] = target: T2, 14-3-3σ/C-RAF (Homo sapiens, UniProt P31947); assay: cell-based
Target sequence in this assay (P31947 whole entry): as the sequence (P31947 whole entry, other chains not shown) above
Target sequence in this assay (P04049 whole entry partner): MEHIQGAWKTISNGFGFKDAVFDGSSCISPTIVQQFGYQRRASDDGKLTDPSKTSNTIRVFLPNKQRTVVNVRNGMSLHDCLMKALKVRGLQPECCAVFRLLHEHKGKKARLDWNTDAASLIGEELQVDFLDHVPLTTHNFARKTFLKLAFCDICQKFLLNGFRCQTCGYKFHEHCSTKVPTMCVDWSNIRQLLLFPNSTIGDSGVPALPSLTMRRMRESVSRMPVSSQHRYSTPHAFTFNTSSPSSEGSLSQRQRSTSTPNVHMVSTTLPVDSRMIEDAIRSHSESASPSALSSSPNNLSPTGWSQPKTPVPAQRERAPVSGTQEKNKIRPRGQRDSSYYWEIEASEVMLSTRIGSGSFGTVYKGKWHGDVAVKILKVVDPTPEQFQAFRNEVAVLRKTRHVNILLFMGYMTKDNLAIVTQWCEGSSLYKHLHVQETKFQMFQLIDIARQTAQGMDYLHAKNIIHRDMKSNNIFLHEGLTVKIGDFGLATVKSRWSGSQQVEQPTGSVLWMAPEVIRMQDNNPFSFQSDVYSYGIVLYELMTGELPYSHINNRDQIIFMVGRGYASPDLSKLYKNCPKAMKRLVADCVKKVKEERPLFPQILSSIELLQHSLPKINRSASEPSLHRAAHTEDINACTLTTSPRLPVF
Protocol: Stabilization of the interaction with a molecular glue was expected to lead to an increase in the intensity of the BRET signal.
Both cell lines were grown in
All compound treatments were 24 hours.
Brieﬂy, HEK293T cells were

14-3-3σ/A-RAF = 14-3-3σ/A-RAF (Homo sapiens, UniProt P31947)
Chain of 14-3-3σ/A-RAF (P31947 whole entry, other chains not shown): as the sequence (P31947 whole entry, other chains not shown) above

14-3-3σ/C-RAF259 [6] = target: T1, 14-3-3σ/C-RAF259; assay: FA compound titration follow-up from selectivity panel
Protocol: as §1
giving the anisotropy change (ΔAU ) .
sele tme: 0 ms, gain: optmal).

14-3-3σ/SOS1 = 14-3-3σ/SOS1 (Homo sapiens, UniProt P31947); assay: as above
Chain of 14-3-3σ/SOS1 (P31947 whole entry, other chains not shown): as above
Protocol: as §1
giving the anisotropy change (ΔAU ) .
sele tme: 0 ms, gain: optmal).

14-3-3σ/C-RAF [7] = target: T2, 14-3-3σ/C-RAF
Target sequence in this assay (P31947 whole entry, other chains not shown): as above

14-3-3σ/TSC2 = 14-3-3σ/TSC2 (Homo sapiens, UniProt P31947); assay: FA compound titration follow-up from selectivity panel
Chain of 14-3-3σ/TSC2 (P31947 whole entry, other chains not shown): as above
Protocol: as §1
giving the anisotropy change (ΔAU ) .
sele tme: 0 ms, gain: optmal).

[8] = 14-3-3σ covalently bound to compound, Replicate 1 and 2

Chain of 14-3-3σ/B-RAF (P31947 whole entry, other chains not shown): as above

O=C(CCl)NCC1CCN(S(=O)(=O)c2ccc(I)cc2)CC1 [Compound 23]
ka, single replicates, B-RAF 12-mer (14-3-3σ/B-RAF; [8]): 9.53e+06 M⁻¹ s⁻¹ and 8.53e+06 M⁻¹ s⁻¹ | kd, single replicates, B-RAF 12-mer (14-3-3σ/B-RAF; [8]): 0.0572 s⁻¹ and 0.0569 s⁻¹ | affinity increase, B-RAF (14-3-3σ/B-RAF; vs binary interaction): 400 fold | clients emerged as hits [1]: four | EC50 (14-3-3σ/C-RAF259 [2]): 1 ± 0.5 µM | decrease of the A-RAF/C-RAF interaction (A-RAF/C-RAF): 23% | decrease of the B-RAF/C-RAF dimer (B-RAF/C-RAF): 15% | IC50 (pERK [3]): 4.4 µM | reduction of the N-RAS Q61L/C-RAF interaction (N-RAS Q61L/C-RAF): 75% | EC50 (14-3-3σ/TAZ): 11.7 µM | EC50 (14-3-3σ/KC1A): 38.1 µM | effect on pERK with the C38N mutant (pERK [4]): No effect | decrease in C-RAF homodimer formation (C-RAF/C-RAF): 47% | EC50 (14-3-3σ/C-RAF [5]): 0.18 µM | ka, single replicates, A-RAF 12-mer (14-3-3σ/A-RAF; [8]): 1.25e+07 M⁻¹ s⁻¹ and 1.02e+07 M⁻¹ s⁻¹ | kd, single replicates, A-RAF 12-mer (14-3-3σ/A-RAF; [8]): 0.0189 s⁻¹ and 0.0196 s⁻¹ | affinity increase, A-RAF (14-3-3σ/A-RAF; vs binary interaction): 1000 fold | EC50 (14-3-3σ/C-RAF259 [6]): 5.1 µM | EC50 (14-3-3σ/SOS1): 24.2 µM | ka, single replicates, C-RAF 12-mer (14-3-3σ/C-RAF [7]; [8]): 1.12e+07 M⁻¹ s⁻¹ and 1.09e+07 M⁻¹ s⁻¹ | kd, single replicates, C-RAF 12-mer (14-3-3σ/C-RAF [7]; [8]): 0.0131 s⁻¹ and 0.0133 s⁻¹ | affinity increase, C-RAF (14-3-3σ/C-RAF [7]; vs binary interaction): 2000 fold | EC50 (14-3-3σ/TSC2): 19.2 µM
